Consider eight compounds from ChEMBL document CHEMBL5291721, “A preclinical secondary pharmacology resource illuminates target-adverse drug reaction associations of marketed drugs” (Nat Commun, 2023).

Assay [1] deals with Prostaglandin G/H synthase 1 (Homo sapiens, UniProt P23219). It is filed as functional.
Assay [2] addresses T1, Amine oxidase [flavin-containing] A (Homo sapiens, UniProt P21397).
T1 sequence (P21397 whole entry): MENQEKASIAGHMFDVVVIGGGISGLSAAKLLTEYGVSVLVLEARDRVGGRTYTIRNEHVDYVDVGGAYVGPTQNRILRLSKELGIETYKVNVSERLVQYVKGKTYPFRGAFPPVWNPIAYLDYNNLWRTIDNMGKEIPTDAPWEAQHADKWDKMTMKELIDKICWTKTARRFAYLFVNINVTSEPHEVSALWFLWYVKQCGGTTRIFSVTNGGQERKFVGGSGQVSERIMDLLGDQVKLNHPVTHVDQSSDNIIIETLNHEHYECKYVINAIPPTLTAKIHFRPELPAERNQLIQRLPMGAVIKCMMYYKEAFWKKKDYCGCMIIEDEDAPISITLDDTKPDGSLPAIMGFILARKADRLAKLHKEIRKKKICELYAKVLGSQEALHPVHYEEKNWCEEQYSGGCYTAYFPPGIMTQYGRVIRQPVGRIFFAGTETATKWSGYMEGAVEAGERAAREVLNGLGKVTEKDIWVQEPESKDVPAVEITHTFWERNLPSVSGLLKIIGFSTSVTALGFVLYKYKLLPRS
It is filed as functional.

The target in the next assay is D(1A) dopamine receptor (Homo sapiens, UniProt P21728).
D(1A) dopamine receptor, sequence (P21728 whole entry): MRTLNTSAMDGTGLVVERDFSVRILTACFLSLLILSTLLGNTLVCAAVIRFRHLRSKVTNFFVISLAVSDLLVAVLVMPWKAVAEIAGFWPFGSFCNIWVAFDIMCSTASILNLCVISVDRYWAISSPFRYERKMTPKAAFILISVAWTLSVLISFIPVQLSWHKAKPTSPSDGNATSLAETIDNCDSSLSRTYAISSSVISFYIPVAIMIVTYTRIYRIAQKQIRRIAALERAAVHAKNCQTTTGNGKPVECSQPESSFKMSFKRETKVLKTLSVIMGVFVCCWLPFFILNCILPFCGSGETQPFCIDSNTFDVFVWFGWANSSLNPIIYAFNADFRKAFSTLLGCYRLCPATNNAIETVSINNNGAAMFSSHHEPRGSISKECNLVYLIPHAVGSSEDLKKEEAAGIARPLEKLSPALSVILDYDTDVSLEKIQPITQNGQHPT
Another assay addresses Mu-type opioid receptor (Homo sapiens, UniProt P35372).
For assay [3], the target named is 3',5'-cyclic-AMP phosphodiesterase 4A (Homo sapiens, UniProt P27815). The assay is classed as functional.
3',5'-cyclic-AMP phosphodiesterase 4A, sequence (P27815 whole entry): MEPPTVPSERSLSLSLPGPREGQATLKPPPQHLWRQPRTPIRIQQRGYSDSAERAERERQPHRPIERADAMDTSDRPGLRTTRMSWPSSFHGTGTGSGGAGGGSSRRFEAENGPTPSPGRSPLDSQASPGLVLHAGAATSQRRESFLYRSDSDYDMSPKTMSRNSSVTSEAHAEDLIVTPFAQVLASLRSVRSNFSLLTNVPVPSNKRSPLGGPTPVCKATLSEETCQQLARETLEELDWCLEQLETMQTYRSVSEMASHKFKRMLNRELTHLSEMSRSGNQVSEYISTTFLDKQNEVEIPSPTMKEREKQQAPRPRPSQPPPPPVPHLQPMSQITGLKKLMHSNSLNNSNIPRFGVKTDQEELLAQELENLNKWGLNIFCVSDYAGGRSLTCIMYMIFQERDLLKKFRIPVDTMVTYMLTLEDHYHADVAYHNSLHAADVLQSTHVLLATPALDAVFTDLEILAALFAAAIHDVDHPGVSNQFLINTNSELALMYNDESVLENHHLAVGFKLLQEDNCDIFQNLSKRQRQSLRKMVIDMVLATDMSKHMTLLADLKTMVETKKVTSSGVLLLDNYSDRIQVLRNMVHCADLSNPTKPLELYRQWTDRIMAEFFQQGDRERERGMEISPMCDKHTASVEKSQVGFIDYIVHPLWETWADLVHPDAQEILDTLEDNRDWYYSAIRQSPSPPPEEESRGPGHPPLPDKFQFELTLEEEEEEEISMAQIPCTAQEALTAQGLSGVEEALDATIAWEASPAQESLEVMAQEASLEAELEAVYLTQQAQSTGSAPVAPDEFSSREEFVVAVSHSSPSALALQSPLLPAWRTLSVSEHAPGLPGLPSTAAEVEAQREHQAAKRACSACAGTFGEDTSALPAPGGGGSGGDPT
Assay [4] has as its target Sodium-dependent noradrenaline transporter (Homo sapiens, UniProt P23975).
The next assay concerns the target T2, Thromboxane A2 receptor (Homo sapiens, UniProt P21731).
T2 sequence (P21731 whole entry): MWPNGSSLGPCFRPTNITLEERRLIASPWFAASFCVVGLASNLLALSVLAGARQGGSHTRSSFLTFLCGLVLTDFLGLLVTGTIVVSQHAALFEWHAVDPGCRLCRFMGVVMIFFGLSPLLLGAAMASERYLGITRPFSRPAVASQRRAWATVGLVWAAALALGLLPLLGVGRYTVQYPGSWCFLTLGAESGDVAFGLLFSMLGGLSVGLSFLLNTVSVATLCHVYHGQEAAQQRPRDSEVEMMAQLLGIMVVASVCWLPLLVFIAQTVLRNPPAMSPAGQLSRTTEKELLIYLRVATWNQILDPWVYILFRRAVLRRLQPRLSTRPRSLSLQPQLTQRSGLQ
It is filed as functional, cell-based.

Assay [5] concerns the target T3, Muscarinic acetylcholine receptor M2 (Homo sapiens, UniProt P08172).
T3 sequence (P08172 whole entry): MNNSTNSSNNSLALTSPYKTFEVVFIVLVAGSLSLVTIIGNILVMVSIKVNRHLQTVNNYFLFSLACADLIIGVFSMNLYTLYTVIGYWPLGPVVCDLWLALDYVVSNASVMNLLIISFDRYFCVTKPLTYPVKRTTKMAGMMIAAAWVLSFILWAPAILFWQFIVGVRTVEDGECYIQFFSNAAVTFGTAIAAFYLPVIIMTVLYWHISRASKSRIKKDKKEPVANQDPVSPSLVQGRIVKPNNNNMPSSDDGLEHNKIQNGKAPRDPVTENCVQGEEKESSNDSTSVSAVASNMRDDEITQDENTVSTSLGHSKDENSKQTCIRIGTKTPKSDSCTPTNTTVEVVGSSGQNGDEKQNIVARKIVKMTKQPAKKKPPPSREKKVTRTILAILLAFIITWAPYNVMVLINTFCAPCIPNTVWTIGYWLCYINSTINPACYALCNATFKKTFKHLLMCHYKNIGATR

Assay [6] has as its target T4, Alpha-2A adrenergic receptor (Homo sapiens, UniProt P08913).
T4 sequence (P08913 whole entry): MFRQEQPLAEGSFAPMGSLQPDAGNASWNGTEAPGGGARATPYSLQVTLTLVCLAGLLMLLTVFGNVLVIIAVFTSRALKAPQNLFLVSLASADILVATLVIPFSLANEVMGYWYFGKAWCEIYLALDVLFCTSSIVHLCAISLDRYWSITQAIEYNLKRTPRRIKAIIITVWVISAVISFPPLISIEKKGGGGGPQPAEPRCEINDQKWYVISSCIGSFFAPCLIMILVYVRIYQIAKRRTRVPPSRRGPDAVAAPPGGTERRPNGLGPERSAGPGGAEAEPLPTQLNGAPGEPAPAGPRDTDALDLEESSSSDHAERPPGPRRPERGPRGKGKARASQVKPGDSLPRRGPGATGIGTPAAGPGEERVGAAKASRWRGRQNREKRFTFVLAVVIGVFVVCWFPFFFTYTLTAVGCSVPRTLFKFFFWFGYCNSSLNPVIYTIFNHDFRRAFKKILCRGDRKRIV

For assay [7], the target named is 5-hydroxytryptamine receptor 2B (Homo sapiens, UniProt P41595). It is filed as functional, cell-based.
5-hydroxytryptamine receptor 2B, sequence (P41595 whole entry): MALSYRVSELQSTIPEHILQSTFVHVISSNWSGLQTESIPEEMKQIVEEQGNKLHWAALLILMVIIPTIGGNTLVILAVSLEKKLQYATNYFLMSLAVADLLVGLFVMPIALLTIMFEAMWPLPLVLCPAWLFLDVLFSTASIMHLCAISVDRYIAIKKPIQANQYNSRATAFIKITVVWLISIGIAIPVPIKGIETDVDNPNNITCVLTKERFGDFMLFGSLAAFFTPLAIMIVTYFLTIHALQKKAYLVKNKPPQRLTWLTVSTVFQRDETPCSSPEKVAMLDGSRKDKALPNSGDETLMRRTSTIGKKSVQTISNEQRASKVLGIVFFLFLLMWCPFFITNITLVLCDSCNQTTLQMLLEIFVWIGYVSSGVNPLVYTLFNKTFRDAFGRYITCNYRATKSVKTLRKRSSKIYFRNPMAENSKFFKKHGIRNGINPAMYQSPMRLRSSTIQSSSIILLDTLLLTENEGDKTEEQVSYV
Note: assay procedure not described here.

Mu-type opioid receptor, sequence (P35372 whole entry): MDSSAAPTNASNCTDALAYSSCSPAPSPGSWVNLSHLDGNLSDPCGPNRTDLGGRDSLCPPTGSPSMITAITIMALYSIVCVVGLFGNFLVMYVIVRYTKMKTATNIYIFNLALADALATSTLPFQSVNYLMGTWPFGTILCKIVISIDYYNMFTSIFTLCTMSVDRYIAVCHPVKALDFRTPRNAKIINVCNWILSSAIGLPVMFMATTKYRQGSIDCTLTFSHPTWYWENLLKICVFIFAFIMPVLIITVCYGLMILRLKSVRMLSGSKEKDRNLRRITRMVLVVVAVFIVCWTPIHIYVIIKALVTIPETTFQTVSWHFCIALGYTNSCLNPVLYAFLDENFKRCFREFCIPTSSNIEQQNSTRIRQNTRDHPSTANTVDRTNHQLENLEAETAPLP
Sodium-dependent noradrenaline transporter, sequence (P23975 whole entry): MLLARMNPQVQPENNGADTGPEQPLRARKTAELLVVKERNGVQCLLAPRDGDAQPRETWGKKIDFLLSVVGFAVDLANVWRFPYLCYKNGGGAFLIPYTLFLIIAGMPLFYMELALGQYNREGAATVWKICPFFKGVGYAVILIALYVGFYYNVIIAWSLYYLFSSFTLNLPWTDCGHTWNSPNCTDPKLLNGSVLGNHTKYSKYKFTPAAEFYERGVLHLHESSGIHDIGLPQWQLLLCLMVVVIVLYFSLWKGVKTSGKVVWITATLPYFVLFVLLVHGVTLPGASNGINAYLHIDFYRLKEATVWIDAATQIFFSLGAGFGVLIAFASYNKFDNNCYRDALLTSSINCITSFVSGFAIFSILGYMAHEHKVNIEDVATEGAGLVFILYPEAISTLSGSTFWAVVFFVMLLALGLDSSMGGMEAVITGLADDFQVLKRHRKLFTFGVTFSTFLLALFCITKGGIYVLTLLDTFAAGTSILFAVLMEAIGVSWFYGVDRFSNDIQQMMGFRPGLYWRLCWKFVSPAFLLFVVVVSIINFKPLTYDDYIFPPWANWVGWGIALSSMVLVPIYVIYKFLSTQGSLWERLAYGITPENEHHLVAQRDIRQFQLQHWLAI
Prostaglandin G/H synthase 1, sequence (P23219 whole entry): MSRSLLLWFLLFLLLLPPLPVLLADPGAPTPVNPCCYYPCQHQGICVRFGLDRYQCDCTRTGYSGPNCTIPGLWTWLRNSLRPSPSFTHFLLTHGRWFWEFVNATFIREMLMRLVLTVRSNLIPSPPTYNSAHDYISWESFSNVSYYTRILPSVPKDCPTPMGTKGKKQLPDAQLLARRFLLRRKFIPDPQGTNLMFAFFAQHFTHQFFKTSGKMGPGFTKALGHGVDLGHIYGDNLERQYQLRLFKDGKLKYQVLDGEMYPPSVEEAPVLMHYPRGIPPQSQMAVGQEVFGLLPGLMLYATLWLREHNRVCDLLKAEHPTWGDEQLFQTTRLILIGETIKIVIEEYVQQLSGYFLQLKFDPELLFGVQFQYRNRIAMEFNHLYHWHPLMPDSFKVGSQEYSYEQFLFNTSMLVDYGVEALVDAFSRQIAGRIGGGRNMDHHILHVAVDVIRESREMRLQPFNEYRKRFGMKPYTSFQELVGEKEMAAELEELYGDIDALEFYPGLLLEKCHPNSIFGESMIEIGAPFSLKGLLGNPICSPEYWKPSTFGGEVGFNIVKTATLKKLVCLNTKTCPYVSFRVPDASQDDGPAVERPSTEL

As to `C#C[C@]1(O)CC[C@H]2[C@@H]3CCC4=CC(=O)CC[C@@H]4[C@H]3C(=C)C[C@@]21CC` [ETONOGESTREL], the half-maximal activity concentration (AC50) was more than 30 µM in assay [1]; more than 30 µM in assay [2]; more than 30 µM at D(1A) dopamine receptor; 10.5 µM at Mu-type opioid receptor; more than 30 µM in assay [3]; more than 30 µM in assay [4]. The AC50 (at Thromboxane A2 receptor; in [5]; in assay [6]; in assay [7]) was more than 30 µM throughout.
Regarding `CC(CN1CC(=O)NC(=O)C1)N1CC(=O)NC(=O)C1` (stereo not given) [RAZOXANE], the AC50 in [1] is more than 3 µM; in assay [2] it was more than 30 µM; at D(1A) dopamine receptor it was more than 30 µM; on Mu-type opioid receptor it was more than 30 µM; in [3], more than 30 µM; in [4] it was more than 30 µM. For the same compound, the AC50 (on Thromboxane A2 receptor; in assay [5]; in assay [6]; in assay [7]) was more than 30 µM in each case.
Consider `CCc1nc(C(N)=O)c(Nc2ccc(N3CCC(N4CCN(C)CC4)CC3)c(OC)c2)nc1NC1CCOCC1` [GILTERITINIB], for which the half-maximal activity concentration (AC50) was more than 30 µM in assay [1]; more than 30 µM in assay [2]; more than 30 µM at D(1A) dopamine receptor; more than 30 µM on Mu-type opioid receptor; 2.44 µM in [3]; more than 30 µM in assay [4]. In addition, the AC50 on Thromboxane A2 receptor is more than 0.3 µM; in [5], 16.4 µM; in [6] it was more than 30 µM; in assay [7], more than 30 µM.
Regarding `CC(=O)O[C@]1(C(C)=O)CC[C@H]2[C@@H]3C=C(C)C4=CC(=O)CC[C@@H]4[C@H]3CC[C@@]21C` [NOMEGESTROL ACETATE], the AC50 (in [1]; in assay [2]; at D(1A) dopamine receptor; at Mu-type opioid receptor; in assay [3]; in assay [4]) was more than 30 µM each time. The AC50 was more than 10 µM on Thromboxane A2 receptor, more than 30 µM in assay [5], more than 30 µM in [6] and more than 30 µM in assay [7].
In the case of `C/C=C/C/C=C/CCC(=O)[C@H]1O[C@H]1C(N)=O` [CERULENIN], the AC50 in assay [1] is 15.5 µM; in [2], more than 30 µM; at D(1A) dopamine receptor, more than 30 µM; on Mu-type opioid receptor, more than 30 µM; in assay [3], more than 30 µM; in assay [4] it was more than 30 µM. In addition, the AC50 (on Thromboxane A2 receptor; in [5]; in assay [6]; in assay [7]) was more than 30 µM throughout.
For the compound `CC[C@H](c1ccc(O)cc1)[C@@H](CC)c1ccc(O)cc1` [HEXESTROL], the AC50 is 16.4 µM in [1]; more than 30 µM in assay [2]; 15.5 µM on D(1A) dopamine receptor; 15 µM at Mu-type opioid receptor; more than 30 µM in [3]; 8.77 µM in assay [4]. Moreover, the AC50 at Thromboxane A2 receptor was more than 3 µM; in assay [5], 18.7 µM; in assay [6], more than 30 µM; in [7] it was more than 30 µM.
Turning to `CC[C@H]1OC(=O)[C@H](C)C(=O)[C@H](C)[C@@H](O[C@@H]2O[C@H](C)C[C@H](N(C)C)[C@H]2O)[C@](C)(OC)C[C@@H](C)C(=O)[C@H](C)[C@H]2N(CCCCn3cnc(-c4cccnc4)c3)C(=O)O[C@]12C` [TELITHROMYCIN], the AC50 was 20.6 µM in assay [1]; more than 30 µM in assay [2]; more than 30 µM on D(1A) dopamine receptor; more than 30 µM at Mu-type opioid receptor; more than 30 µM in [3]; more than 30 µM in assay [4]. Moreover, the concentration at half-maximal activity (AC50) (on Thromboxane A2 receptor; in assay [5]; in [6]; in assay [7]) was more than 30 µM throughout.
With `CC(=O)Oc1cc(C(F)(F)F)ccc1C(=O)O` [TRIFLUSAL], the AC50 (in assay [1]; in [2]; at D(1A) dopamine receptor; at Mu-type opioid receptor; in [3]; in assay [4]) was more than 30 µM throughout. Also, the AC50 (at Thromboxane A2 receptor; in assay [5]; in assay [6]; in [7]) was more than 30 µM in each case.

For orientation: AC50 means the concentration at which the activity in the assay is half-maximal. A high value points to weaker potency.
